Target: GLP-1R (Homo sapiens, UniProt P43220)
Assay: GLP-1R Activation - cAMP Assay
Format: cell-based
Settings: cAMP increase in CHO cells stably expressing GLP-1R; each compound run on one of the two cAMP assays (Assay 1 or Assay 2, not specified)
Summary of the method: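 cAMP rise read by HTRF after 30 min agonist exposure (10-point titration, 37 °C) in HBSS/20 mM Hepes/0.1% BSA, following 1 h pre-incubation. Cells: stable GLP-1R CHO line, 1,000/well, seeded overnight. Sigmoidal fit of response vs log concentration gives EC50.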

Chain of GLP-1R (P43220 24-463): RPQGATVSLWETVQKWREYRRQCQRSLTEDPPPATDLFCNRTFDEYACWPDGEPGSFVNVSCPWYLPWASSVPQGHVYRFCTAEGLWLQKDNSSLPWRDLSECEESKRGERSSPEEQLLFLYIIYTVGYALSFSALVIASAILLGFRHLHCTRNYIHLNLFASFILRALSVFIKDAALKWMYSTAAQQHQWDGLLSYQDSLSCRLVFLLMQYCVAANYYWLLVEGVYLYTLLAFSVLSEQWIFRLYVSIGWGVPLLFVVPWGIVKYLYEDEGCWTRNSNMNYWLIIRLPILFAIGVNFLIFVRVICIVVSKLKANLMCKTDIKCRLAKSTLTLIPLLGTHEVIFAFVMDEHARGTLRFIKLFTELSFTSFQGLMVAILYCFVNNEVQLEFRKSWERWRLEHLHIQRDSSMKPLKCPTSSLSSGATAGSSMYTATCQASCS

| SMILES | EC50 |
| --- | --- |
| CC1(C)COC[C@H]1n1c(Cc2ccc(-c3ccc(F)c(OCc4ccc(-n5ccnn5)cc4F)n3)cc2F)nc2ccc(C(=O)O)cc21 [Example 236, (S)-1-(4,4-dimethyltetrahydrofuran-3-yl)-2-(2-fluoro-4-(5-fluoro-6-((2-fluoro-4-(1H-1,2,3-triazol-1-yl)benzyl)oxy)pyridin-2-yl)benzyl)-1H-benzo[d]imidazole-6-carboxylic acid] | 0.203 nM |
| Cc1cnc(COc2cccc(-c3cc(F)c(Cc4nc5ccc(C(=O)O)cc5n4[C@@H]4COCC4(C)C)cc3F)n2)c(F)c1 [Example 237, (S)-2-(2,5-difluoro-4-(6-((3-fluoro-5-methylpyridin-2-yl)methoxy)pyridin-2-yl)benzyl)-1-(4,4-dimethyltetrahydrofuran-3-yl)-1H-benzo[d]imidazole-6-carboxylic acid] | 0.52 nM |
| CC1(C)COC[C@H]1n1c(Cc2cc(F)c(-c3cccc(OCc4ccc5c(c4)CN(S(C)(=O)=O)C5)n3)cc2F)nc2c(F)cc(C(=O)O)cc21 [Example 240, (S)-2-(2,5-difluoro-4-(6-((2-(methylsulfonyl)isoindolin-5-yl)methoxy)pyridin-2-yl)benzyl)-1-(4,4-dimethyltetrahydrofuran-3-yl)-4-fluoro-1H-benzo[d]imidazole-6-carboxylic acid] | 0.127 nM |
| CC1(C)COC[C@H]1n1c(Cc2c(F)cc(-c3cccc(OCc4ccc(-n5ccnn5)cc4F)n3)c(F)c2F)nc2c(F)cc(C(=O)O)cc21 [Example 241, (S)-1-(4,4-dimethyltetrahydrofuran-3-yl)-4-fluoro-2-(2,3,6-trifluoro-4-(6-((2-fluoro-4-(1H-1,2,3-triazol-1-yl)benzyl)oxy)pyridin-2-yl)benzyl)-1H-benzo[d]imidazole-6-carboxylic acid] | 0.013 nM |
| CC1(C)COC[C@H]1n1c(Cc2c(F)cc(-c3cccc(OCc4ccc(Cl)cc4F)n3)c(F)c2F)nc2c(F)cc(C(=O)O)cc21 [Example 242, (S)-2-(4-(6-((4-chloro-2-fluorobenzyl)oxy)pyridin-2-yl)-2,3,6-trifluorobenzyl)-1-(4,4-dimethyltetrahydrofuran-3-yl)-4-fluoro-1H-benzo[d]imidazole-6-carboxylic acid] | 0.02 nM |
| CC1(C)COC[C@H]1n1c(Cc2c(F)cc(-c3cccc(OCc4ccc(Cl)cc4)n3)c(F)c2F)nc2c(F)cc(C(=O)O)cc21 [Example 243, (S)-2-(4-(6-((4-chlorobenzyl)oxy)pyridin-2-yl)-2,3,6-trifluorobenzyl)-1-(4,4-dimethyltetrahydrofuran-3-yl)-4-fluoro-1H-benzo[d]imidazole-6-carboxylic acid] | 0.022 nM |
| CC1(C)COC[C@H]1n1c(Cc2c(F)cc(-c3cccc(OCc4ccc(C#N)cc4)n3)c(F)c2F)nc2c(F)cc(C(=O)O)cc21 [Example 244, (S)-2-(4-(6-((4-cyanobenzyl)oxy)pyridin-2-yl)-2,3,6-trifluorobenzyl)-1-(4,4-dimethyltetrahydrofuran-3-yl)-4-fluoro-1H-benzo[d]imidazole-6-carboxylic acid] | 0.015 nM |
| CC1(C)COC[C@H]1n1c(Cc2c(F)cc(-c3cccc(OCc4ccc(C#N)cc4)n3)c(F)c2F)nc2ccc(C(=O)O)cc21 [Example 245, (S)-2-(4-(6-((4-cyanobenzyl)oxy)pyridin-2-yl)-2,3,6-trifluorobenzyl)-1-(4,4-dimethyltetrahydrofuran-3-yl)-1H-benzo[d]imidazole-6-carboxylic acid] | 0.051 nM |
| CC1(C)COC[C@H]1n1c(Cc2c(F)cc(-c3cccc(OCc4ccc(Cl)cc4)n3)c(F)c2F)nc2ccc(C(=O)O)cc21 [Example 246, (S)-2-(4-(6-((4-chlorobenzyl)oxy)pyridin-2-yl)-2,3,6-trifluorobenzyl)-1-(4,4-dimethyltetrahydrofuran-3-yl)-1H-benzo[d]imidazole-6-carboxylic acid] | 0.065 nM |
| CC1(C)COC[C@H]1n1c(Cc2c(F)cc(-c3cccc(OCc4ccc(Cl)cc4F)n3)c(F)c2F)nc2ccc(C(=O)O)cc21 [Example 247, (S)-2-(4-(6-((4-chloro-2-fluorobenzyl)oxy)pyridin-2-yl)-2,3,6-trifluorobenzyl)-1-(4,4-dimethyltetrahydrofuran-3-yl)-1H-benzo[d]imidazole-6-carboxylic acid] | 0.151 nM |
| CC1(C)COC[C@H]1n1c(Cc2cc(F)c(-c3cccc(OCc4ccc5c(c4)CN(S(C)(=O)=O)C5)n3)cc2F)nc2ccc(C(=O)O)cc21 [Example 248, (S)-2-(2,5-difluoro-4-(6-((2-(methylsulfonyl)isoindolin-5-yl)methoxy)pyridin-2-yl)benzyl)-1-(4,4-dimethyltetrahydrofuran-3-yl)-1H-benzo[d]imidazole-6-carboxylic acid] | 0.186 nM |
| CC1(C)COC[C@H]1n1c(Cc2cc(F)c(-c3cccc(OCc4ccc(Cl)nc4F)n3)cc2F)nc2ccc(C(=O)O)cc21 [Example 249, (S)-2-(4-(6-((6-chloro-2-fluoropyridin-3-yl)methoxy)pyridin-2-yl)-2,5-difluorobenzyl)-1-(4,4-dimethyltetrahydrofuran-3-yl)-1H-benzo[d]imidazole-6-carboxylic acid] | 0.137 nM |
| COCCn1c(Cc2c(F)cc(-c3cccc(OCc4ccc(-n5ccnn5)cc4F)n3)c(F)c2F)nc2c(F)cc(C(=O)O)cc21 [Example 250, 4-fluoro-1-(2-methoxyethyl)-2-(2,3,6-trifluoro-4-(6-((2-fluoro-4-(1H-1,2,3-triazol-1-yl)benzyl)oxy)pyridin-2-yl)benzyl)-1H-benzo[d]imidazole-6-carboxylic acid] | 0.048 nM |
| COCCn1c(Cc2c(F)cc(-c3cccc(OCc4ccc(Cl)cc4F)n3)c(F)c2F)nc2c(F)cc(C(=O)O)cc21 [Example 251, 2-(4-(6-((4-chloro-2-fluorobenzyl)oxy)pyridin-2-yl)-2,3,6-trifluorobenzyl)-4-fluoro-1-(2-methoxyethyl)-1H-benzo[d]imidazole-6-carboxylic acid] | 0.079 nM |
| Cc1ccc(COc2cccc(-c3cc(F)c(Cc4nc5ccc(C(=O)O)cc5n4[C@@H]4COCC4(C)C)cc3F)n2)c(F)n1 [Example 252, (S)-2-(2,5-difluoro-4-(6-((2-fluoro-6-methylpyridin-3-yl)methoxy)pyridin-2-yl)benzyl)-1-(4,4-dimethyltetrahydrofuran-3-yl)-1H-benzo[d]imidazole-6-carboxylic acid] | 0.059 nM |
| COCCn1c(Cc2c(F)cc(-c3cccc(OCc4ccc(-n5ccnn5)nc4)n3)c(F)c2F)nc2c(F)cc(C(=O)O)cc21 [Example 253, 2-(4-(6-((6-(1H-1,2,3-triazol-1-yl)pyridin-3-yl)methoxy)pyridin-2-yl)-2,3,6-trifluorobenzyl)-4-fluoro-1-(2-methoxyethyl)-1H-benzo[d]imidazole-6-carboxylic acid] | 0.071 nM |
| CC1(C)COC[C@H]1n1c(Cc2cc(F)c(-c3cccc(OCc4ccc(-n5ccnn5)nc4)n3)cc2F)nc2ccc(C(=O)O)cc21 [Example 254, (S)-2-(4-(6-((6-(1H-1,2,3-triazol-1-yl)pyridin-3-yl)methoxy)pyridin-2-yl)-2,5-difluorobenzyl)-1-(4,4-dimethyltetrahydrofuran-3-yl)-1H-benzo[d]imidazole-6-carboxylic acid] | 0.088 nM |
| COCCn1c(Cc2cc(F)c(-c3cccc(OCc4ccc(Cl)cc4)n3)cc2Cl)nc2c(F)cc(C(=O)O)cc21 [Example 255, 2-(2-chloro-4-(6-((4-chlorobenzyl)oxy)pyridin-2-yl)-5-fluorobenzyl)-4-fluoro-1-(2-methoxyethyl)-1H-benzo[d]imidazole-6-carboxylic acid] | 0.108 nM |

From patent US12570642B2, “GLP-IR modulating compounds” (Gilead Sciences, Inc., priority 2021, dated 2026)
